This note sets out measurements from paper PMC5300203, “O-prenylated 3-carboxycoumarins as a novel class of 15-LOX-1 inhibitors” (PLoS ONE, 2017).

The target in data set [1] is T1, human 15-LOX-1 (Homo sapiens, UniProt P16050).
T1 construct: Human 15-LOX-1 was prepared from isolated human eosinophil based on the procedure reported by Sigal et al; from tissue; host or cells: eosinophils purified from blood of hypereosinophilic human donors; 100,000 g supernatant, 30% and 60% ammonium sulfate pellets
T1 sequence (P16050 1-662): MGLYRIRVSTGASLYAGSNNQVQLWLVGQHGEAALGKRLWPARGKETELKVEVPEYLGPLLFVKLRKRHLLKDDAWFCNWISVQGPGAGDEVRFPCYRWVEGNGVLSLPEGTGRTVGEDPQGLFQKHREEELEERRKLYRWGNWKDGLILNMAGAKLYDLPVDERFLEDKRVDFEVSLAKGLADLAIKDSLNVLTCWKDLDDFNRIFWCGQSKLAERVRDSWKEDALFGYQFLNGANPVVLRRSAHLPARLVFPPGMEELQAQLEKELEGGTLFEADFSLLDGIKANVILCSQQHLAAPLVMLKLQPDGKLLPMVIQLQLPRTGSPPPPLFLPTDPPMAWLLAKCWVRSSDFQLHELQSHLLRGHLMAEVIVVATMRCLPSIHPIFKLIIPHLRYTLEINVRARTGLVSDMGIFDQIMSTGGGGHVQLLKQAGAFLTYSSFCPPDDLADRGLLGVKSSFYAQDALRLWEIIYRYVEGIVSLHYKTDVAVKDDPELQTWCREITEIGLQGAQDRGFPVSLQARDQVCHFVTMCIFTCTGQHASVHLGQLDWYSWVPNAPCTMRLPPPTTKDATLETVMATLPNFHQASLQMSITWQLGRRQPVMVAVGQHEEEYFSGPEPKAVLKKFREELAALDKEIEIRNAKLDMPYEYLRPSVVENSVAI
Briefly: Lipoxygenase inhibitory assessment (DMAB-MBTH peroxide method, linoleic acid substrate). The data set is classed as biochemical. The method, then:
The inhibitory activity of the synthetic compounds against human 15-LOX-1 was determined utilizing modified catalytic oxidative coupling of 3-methyl-2-benzothiazolinone (MBTH) with 3-(dimethylamino)benzoic acid (DMAB) as reported in previous studies. In this method, the basis for the determination of lipoxygenase activity is the measurement of peroxide concentration. Human 15-LOX-1 was prepared from isolated human eosinophil based on the procedure reported by Sigal et al. […] Because of the instability of the purified 15-LOX-1, the crude form of the enzyme was utilized. Eosinophils from blood of hypereosinophilic donors (8–11% eosinophils) were purified to more than 85% through “hypotonic lysis and centrifugation” method reported by Samoszuk.
Linoleic acid and two assay solutions (A and B) were prepared in advance.
Solution A was 50 mM DMAB in an l00 mM phosphate buffer (pH 7.0). Solution B was a mixture of l0 mM MBTH (3 mL), hemoglobin (5 mg/mL, 3 mL) in 50 mM phosphate buffer at pH 5.0 (25 ml). A linoleic acid solution was prepared by mixing 5.6 mg of linoleic acid (Sigma Aldrich, L1376) with 0.5 mL methanol and then diluted with KOH 100 mM to a final volume of 5 mL (4 mM).
In the standard assay, the sample in DMSO (12.5 μL), 15-LOX-1 (104 units/mL; 30 μL) and phosphate buffer, pH 7.0 (50 mM; 435 μL) were mixed in 48 well plate and perincubation was carried out for 10 min at 30°C. A control test was done with the same volume of ethanol. After the preincubation, linoleic acid solution (25 μL) was added to start the peroxidation reaction at 30°C, and, 10 min later, solution A (135 μL) and then solution B (65 μL) was added to start the color formation. Further, 3 min later, 100 μL of a 2% SDS solution was added to terminate the reaction. The absorbance at 598 nm was compared with the control test. These experiments were performed in triplicate. The data analysis was performed using GraphPad Prism 5.01.

Where [2] appears, read: human 15-LOX-1 from eosinophils (crude), linoleic acid, 30°C, ± SD (n = 3), read-out: IC50.
Where [3] appears, read: human 15-LOX-1 from eosinophils (crude), linoleic acid, 30°C, ± SD (n = 3).

The structures appear in SMILES notation. Read-outs that look alike come from different tables or passages of the source.

For `Cc1nc(N2CCN(C)CC2)nc2c1Sc1ccccc1N2` [Compound 4-MMPB, 4-methyl-2-(4-methylpiperazinyl)pyrimido[4,5-b]benzothiazine, reference compound], in data set [1] (setting [2]), the IC50 (commonly the concentration that gives 50% inhibition) worked out at 16.8 ± 1.1 µM.

With `C=CCOc1cccc2oc(=O)c(C(=O)O)cc12` [Compound 4a, 5-(allyloxy)-2-oxo-2H-chromene-3-carboxylic acid], the melting point (in general, the temperature of the solid-liquid transition) was in the range of 115 to 117 °C. For the same compound, in data set [1] (setting [2]), the IC50 was 93.5 ± 7.6 µM.

Consider `CC(C)=CCOc1cccc2oc(=O)c(C(=O)O)cc12` [Compound 4b, 5-(3-methylbut-2-enyloxy)-2-oxo-2H-chromene-3-carboxylic acid], for which the melting point lay in the range of 85 to 86 °C. For the same compound, the IC50 in data set [1] (setting [2]) is 62.5 ± 5.9 µM.

`CC(C)=CCC/C(C)=C/COc1cccc2oc(=O)c(C(=O)O)cc12` [Compound 4c, 5-((E)-3,7-dimethylocta-2,6-dienyloxy)-2-oxo-2H-chromene-3-carboxylic acid] displayed a melting point of 49 to 50 °C. Besides, in data set [1] (setting [2]), the concentration for half-maximal inhibition (IC50) is 4.8 ± 0.55 µM.

Regarding `CC(C)=CCC/C(C)=C/CC/C(C)=C/COc1cccc2oc(=O)c(C(=O)O)cc12` [Compound 4d, 5-((2E,6E)-3,7,11-trimethyldodeca-2,6,10-trienyloxy)-2-oxo-2H-chromene-3-carboxylic acid], the melting point lay in the range of 39 to 40 °C. The compound also yielded an IC50 in data set [1] of 0.74 ± 0.05 µM. The “higher lipoxygenase inhibitory activity compared to the corresponding carboxylate-off analog” value in data set [1] (3-carboxycoumarin vs farnesyloxycoumarin without carboxylic acid (4d vs 4d')) was 2 folds. In data set [1] (setting [3]), this compound displayed an IC50 of 1.6 ± 0.08 µM.

The compound `C=CCOc1ccc2oc(=O)c(C(=O)O)cc2c1` [Compound 8a, 6-(allyloxy)-2-oxo-2H-chromene-3-carboxylic acid] came in with a melting point of 167 to 168 °C. The concentration for half-maximal inhibition (IC50) in data set [1] (setting [2]) was determined as 296 ± 26.3 µM.

Turning to `CC(C)=CCOc1ccc2oc(=O)c(C(=O)O)cc2c1` [Compound 8b, 6-(3-methylbut-2-enyloxy)-2-oxo-2H-chromene-3-carboxylic acid], the melting point was in the range of 158 to 159 °C. Besides, the half-inhibitory concentration (IC50) in data set [1] (setting [2]) is 227 ± 22.1 µM.

As to `CC(C)=CCC/C(C)=C/COc1ccc2oc(=O)c(C(=O)O)cc2c1` [Compound 8c, Ethyl 6-((E)-3,7-dimethylocta-2,6-dienyloxy)-2-oxo-2H-chromene-3-carboxylic acid], the melting point lay within 130 to 131 °C. For the same compound, the concentration for half-maximal inhibition (IC50) in data set [1] (setting [2]) worked out at 21.5 ± 1.6 µM.

For `CC(C)=CCC/C(C)=C/CC/C(C)=C/COc1ccc2oc(=O)c(C(=O)O)cc2c1` [Compound 8d, 6-((2E,6E)-3,7,11-trimethyldodeca-2,6,10-trienyloxy)-2-oxo-2H-chromene-3-carboxylic acid], the melting point lay in the range of 98 to 99 °C. The compound also showed a half-maximal inhibitory concentration (IC50) in data set [1] of 10.4 ± 2.1 µM. Also, the “lower lipoxygenase inhibitory potency compared to the corresponding carboxylate-off analog” value in data set [1] (3-carboxycoumarin vs farnesyloxycoumarin without carboxylic acid (d vs d')) is given as 10 folds. The 50% inhibitory concentration (IC50) in data set [1] (setting [3]) was found to be 1.0 ± 0.06 µM.

In turn, `C=CCOc1ccc2cc(C(=O)O)c(=O)oc2c1` [Compound 12a, 7-(allyloxy)-2-oxo-2H-chromene-3-carboxylic acid] showed a melting point of 205 to 207 °C. Also, the concentration for half-maximal inhibition (IC50) in data set [1] (setting [2]) was found to be 114 ± 10.1 µM.

Consider `CC(C)=CCOc1ccc2cc(C(=O)O)c(=O)oc2c1` [Compound 12b, 7-(3-methylbut-2-enyloxy)-2-oxo-2H-chromene-3-carboxylic acid], for which the melting point lay in the range of 147 to 148 °C. Also, the half-maximal inhibitory concentration (IC50) in data set [1] (setting [2]) was 81.3 ± 5.3 µM.

The compound `CC(C)=CCC/C(C)=C/COc1ccc2cc(C(=O)O)c(=O)oc2c1` [Compound 12c, 7-((E)-3,7-dimethylocta-2,6-dienyloxy)-2-oxo-2H-chromene-3-carboxylic acid] showed a melting point of 118 to 119 °C. The half-inhibitory concentration (IC50) in data set [1] (setting [2]) came to 12.1 ± 0.91 µM.

`CC(C)=CCC/C(C)=C/CC/C(C)=C/COc1ccc2cc(C(=O)O)c(=O)oc2c1` [Compound 12d, 7-((2E,6E)-3,7,11-trimethyldodeca-2,6,10-trienyloxy)-2-oxo-2H-chromene-3-carboxylic acid]: the melting point lay within 87 to 90 °C.

Turning to `C=CCOc1cccc2cc(C(=O)O)c(=O)oc12` [Compound 18a, 8-(allyloxy)-2-oxo-2H-chromene-3-carboxylic acid], the melting point lay within 198 to 200 °C. Further, the IC50 in data set [1] (setting [2]) came out at 293 ± 20.3 µM.

Compound `CC(C)=CCOc1cccc2cc(C(=O)O)c(=O)oc12` [Compound 18b, 8-(3-methylbut-2-enyloxy)-2-oxo-2H-chromene-3-carboxylic acid] displayed a melting point of 143 to 144 °C. For the same compound, in data set [1] (setting [2]), the IC50 worked out at 263 ± 23 µM.

Regarding `CC(C)=CCC/C(C)=C/COc1cccc2cc(C(=O)O)c(=O)oc12` [Compound 18c, 8-((E)-3,7-dimethylocta-2,6-dienyloxy)-2-oxo-2H-chromene-3-carboxylic acid], the melting point was 100 to 101 °C. Besides, the IC50 in data set [1] (setting [2]) turned out to be 20.4 ± 2.2 µM.
